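Tested at 5 concentrations; 48 h exposure; 96-well plates; endpoints linearly interpolated, else capped at highest concentration. Here, GI50 denotes the concentration required for 50% inhibition of growth. TGI marks complete inhibition of growth.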
Tests used:
Assay in all cases: growth of human tumour cells (NCI), 48 h; in the data active = GI50 below about 0.43 µM; inactive = the rest
SR leukemia = tested on: SR leukemia
SK-MEL-28 melanoma = tested on: SK-MEL-28 melanoma
MDA-MB-435 = tested on: MDA-MB-435
T-47D breast = tested on: T-47D breast
HCT-116 colon = tested on: HCT-116 colon
DU-145 prostate = tested on: DU-145 prostate
786-0 renal = tested on: 786-0 renal
DLD-1 colon = tested on: DLD-1 colon
DMS 114 small cell lung = tested on: DMS 114 small cell lung
XF 498 CNS = tested on: XF 498 CNS
SNB-78 CNS = tested on: SNB-78 CNS
MDA-N = tested on: MDA-N
KM20L2 colon = tested on: KM20L2 colon

CCN(CCO)C(=O)C1(c2ccccc2)CCCCC1
> 10 µM: TGI (SR leukemia) | TGI (SK-MEL-28 melanoma) | TGI (MDA-MB-435) | TGI (T-47D breast) | TGI (HCT-116 colon) | TGI (DU-145 prostate)

CCCCC(=O)c1ccc2ccccc2c1O
> 100 µM: TGI (SR leukemia) | TGI (786-0 renal) | TGI (SK-MEL-28 melanoma) | TGI (MDA-MB-435) | TGI (T-47D breast) | TGI (HCT-116 colon) | TGI (DU-145 prostate)

CCOC(=O)NC(=O)c1cn(CCNCCO)c(=O)[nH]c1=O
> 100 µM: TGI (SR leukemia) | TGI (DLD-1 colon) | TGI (HCT-116 colon) | TGI (DMS 114 small cell lung) | TGI (XF 498 CNS) | TGI (SNB-78 CNS)

CN(CCC(=O)O)C1=Nc2ccc(Cl)cc2C(c2ccccc2)=[N+]([O-])C1
> 100 µM: TGI (MDA-N) | TGI (SR leukemia) | TGI (786-0 renal) | TGI (SK-MEL-28 melanoma) | TGI (MDA-MB-435) | TGI (T-47D breast) | TGI (HCT-116 colon) | TGI (DU-145 prostate)

OCCCNc1nc(=S)[nH]c2[nH]ncc12
inactive: GI50 (SK-MEL-28 melanoma) 57.1 µM | GI50 (MDA-MB-435) 45.5 µM | GI50 (T-47D breast) 45 µM | GI50 (DU-145 prostate) 41.3 µM
> 100 µM: TGI (SK-MEL-28 melanoma) | TGI (MDA-MB-435) | TGI (T-47D breast) | TGI (DU-145 prostate)

[Cl-].[Rh+3].c1cnc2c(c1)ccc1cccnc12.c1cnc2c(c1)ccc1cccnc12.c1cnc2c(c1)ccc1cccnc12
> 100 µM: TGI (SR leukemia) | TGI (786-0 renal) | TGI (HCT-116 colon) | TGI (KM20L2 colon) | TGI (SNB-78 CNS)
inactive: GI50 (KM20L2 colon) > 100 µM | GI50 (SNB-78 CNS) > 100 µM

c1nc(N2CC2)c2cnn(C3CCCCO3)c2n1 (centres undefined)
> 100 µM: TGI (MDA-N) | TGI (SR leukemia) | TGI (786-0 renal) | TGI (SK-MEL-28 melanoma) | TGI (DLD-1 colon) | TGI (MDA-MB-435) | TGI (T-47D breast) | TGI (HCT-116 colon) | TGI (DMS 114 small cell lung) | TGI (DU-145 prostate) | TGI (KM20L2 colon) | TGI (XF 498 CNS) | TGI (SNB-78 CNS)

C[C@]12CC[C@H](OC(=O)Cc3ccc(N(CCCl)CCCl)cc3)CC1=CC[C@@H]1[C@@H]2CC[C@]2(C)C(=O)CC[C@@H]12
> 100 µM: TGI (MDA-N) | TGI (SR leukemia) | TGI (SK-MEL-28 melanoma) | TGI (MDA-MB-435) | TGI (T-47D breast) | TGI (DU-145 prostate)

O=S(=O)(O)C1=C2Sc3ccccc3N=C2c2ccccc2C1
32.5 µM: TGI (DLD-1 colon)
22.2 µM: TGI (DMS 114 small cell lung)
28.5 µM: TGI (HCT-116 colon)
34 µM: TGI (SNB-78 CNS)
34.3 µM: TGI (KM20L2 colon)
31.8 µM: TGI (XF 498 CNS)
20.6 µM: TGI (SR leukemia)
31.4 µM: TGI (786-0 renal) | TGI (SK-MEL-28 melanoma)

Ic1ccc2c(c1)N(c1ccccc1)c1cc(N=c3ccc4nc5ccc(I)cc5n(-c5ccccc5)c-4c3)ccc1N2
> 100 µM: TGI (MDA-N) | TGI (SR leukemia) | TGI (786-0 renal) | TGI (SK-MEL-28 melanoma) | TGI (T-47D breast) | TGI (HCT-116 colon) | TGI (DU-145 prostate)
94 µM: TGI (MDA-MB-435)

C[N+](C)(C)CCCSc1nc2ccccc2[nH]1
> 100 µM: TGI (MDA-N) | TGI (786-0 renal) | TGI (SK-MEL-28 melanoma) | TGI (MDA-MB-435) | TGI (T-47D breast) | TGI (HCT-116 colon) | TGI (DU-145 prostate)

CN1CCN(c2ccc3[nH]c(-c4cc(O)c5c(nc(CO)n5C)c4O)nc3n2)CC1
> 100 µM: TGI (MDA-N) | TGI (786-0 renal) | TGI (SK-MEL-28 melanoma) | TGI (T-47D breast) | TGI (HCT-116 colon) | TGI (DU-145 prostate)
48.3 µM: TGI (MDA-MB-435)

CCCC/C=C/C/C=C/CCCCCCCCC(=O)OCC1CCCN2CCCCC12 (centres undefined)
88.6 µM: TGI (T-47D breast)
> 100 µM: TGI (MDA-N) | TGI (786-0 renal) | TGI (SK-MEL-28 melanoma) | TGI (MDA-MB-435) | TGI (HCT-116 colon) | TGI (DU-145 prostate)

Source: PubChem BioAssay (NCI)
